Structures are written as SMILES.

This assay deals with T1, BACE2 (Homo sapiens, UniProt Q9Y5Z0).
T1 construct: BACE2 enzyme ectodomain (derived from plasmid “pET17b-T7-hu proBACE2”) was prepared as described in Ostermann et al; T7 tag (N); made in house
T1 sequence (Q9Y5Z0 21-473 limits assumed): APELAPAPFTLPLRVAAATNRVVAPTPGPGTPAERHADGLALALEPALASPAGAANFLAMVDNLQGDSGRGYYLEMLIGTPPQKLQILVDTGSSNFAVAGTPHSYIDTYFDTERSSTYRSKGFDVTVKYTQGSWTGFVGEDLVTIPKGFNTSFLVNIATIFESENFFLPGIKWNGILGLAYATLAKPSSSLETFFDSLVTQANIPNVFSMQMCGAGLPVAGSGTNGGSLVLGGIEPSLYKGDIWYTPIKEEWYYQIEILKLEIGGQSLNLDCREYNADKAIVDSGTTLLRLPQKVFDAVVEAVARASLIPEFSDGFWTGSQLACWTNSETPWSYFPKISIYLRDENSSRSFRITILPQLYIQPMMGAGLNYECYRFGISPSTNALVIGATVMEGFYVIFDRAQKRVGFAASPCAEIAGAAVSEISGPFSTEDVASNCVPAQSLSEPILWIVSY
Description: Fluorescent-peptide cleavage assay for BACE2 inhibition. Type of assay: biochemical. As to conditions: BACE2 enzyme ectodomain, fluorescent peptide WS EVNLD AEFRC-MR121, assay buffer pH 4.5, room temperature. The procedure: Fluorescent-Peptide Cleavage Assay for BACE2 Inhibition
The pro-enzyme was stored at 4° C. at a concentration of 70 μg/ml.
A fluorescent peptide with the amino acid sequence WS EVNLD AEFRC-MR121 was synthesised and a stock solution of 1.5 mM in DMSO prepared and stored at −20° C. MR121 is a fluorophore with an excitation wavelength of 630 nm and emission wavelength of 695 nm. The MR121 fluorescence is quenched by the N-terminal tryptophan until the peptide is cleaved by BACE2.
Assays were all made in a Corning 384-well black polystyrene non-binding surface microtitre plate with clear flat bottom and using a Plate:Vision (Perkin Elmer) fluorescence reader. To perform the assay an 80 nM solution of BACE2 was prepared in assay buffer (assay buffer is 100 mM Na-acetate; 20 mM EDTA; 0.05% BSA; pH 4.5) and incubated at room temperature for 1 hour to activate the enzyme. 39 μl of the activated BACE2 was placed in each assay well, followed by 1 μl compound to be tested at an appropriate concentration in 100% DMSO. The plate was then mixed and incubated for 10 minutes at room temperature.
The assay readout is the rate of change of fluorescence intensity giving a relative measure of BACE2 activity. Small values correspond to high inhibition and larger values to low inhibition. […] IC50 values were determined using these assay values generated for a range of inhibitor concentrations and the curve fitting software XLfit (IDBS) using the Sigmoidal Dose-Response Model.
As a reminder, the IC50 is the concentration that gives 50% inhibition. The compound `CN1C(=O)C[C@@](C)(c2cccc(NC(=O)c3ccccn3)c2)N=C1N` [Example 13, Pyridine-2-carboxylic acid [3-((S)-2-amino-1,4-dimethyl-6-oxo-1,4,5,6-tetrahydro-pyrimidin-4-yl)-phenyl]-amide] yielded an IC50 of 9 nM.

For `COc1ccc(C(=O)Nc2cccc([C@]3(C)CC(=O)N(C)C(N)=N3)c2)nc1` [Example 14, 5-Methoxy-pyridine-2-carboxylic acid [3-((S)-2-amino-1,4-dimethyl-6-oxo-1,4,5,6-tetrahydro-pyrimidin-4-yl)-phenyl]-amide], inhibition was half-maximal at 25 nM (IC50).

`CN1C(=O)C[C@@](C)(c2cccc(NC(=O)c3ccc(C#N)cn3)c2)N=C1N` [Example 15, 5-Cyano-pyridine-2-carboxylic acid [3-((S)-2-amino-1,4-dimethyl-6-oxo-1,4,5,6-tetrahydro-pyrimidin-4-yl)-phenyl]amide] displayed an IC50 of 10 nM.

`CN1C(=O)C[C@@](C)(c2cccc(NC(=O)c3ccc(CO)cn3)c2)N=C1N` [Example 16, 5-Hydroxymethyl-pyridine-2-carboxylic acid [3-((S)-2-amino-1,4-dimethyl-6-oxo-1,4,5,6-tetrahydro-pyrimidin-4-yl)-phenyl]amide] gave an IC50 of 458 nM.

For the compound `Cc1ccc(C(=O)Nc2cccc([C@]3(C)CC(=O)N(C)C(N)=N3)c2)cc1` [Example 17, N-[3-((S)-2-Amino-1,4-dimethyl-6-oxo-1,4,5,6-tetrahydro-pyrimidin-4-yl)-phenyl]-4-methyl-benzamide], the IC50 turned out to be 120 nM.

Turning to `CN1C(=O)C[C@@](C)(c2cccc(NC(=O)c3ccc(Cl)cc3)c2)N=C1N` [Example 18, N-[3-((S)-2-Amino-1,4-dimethyl-6-oxo-1,4,5,6-tetrahydro-pyrimidin-4-yl)-phenyl]-4-chloro-benzamide], the IC50 worked out at 50 nM.

`CN1C(=O)C[C@@](C)(c2cccc(NC(=O)c3ccc(Cl)nc3)c2)N=C1N` [Example 19, N-[3-((S)-2-Amino-1,4-dimethyl-6-oxo-1,4,5,6-tetrahydro-pyrimidin-4-yl)-phenyl]-6-chloro-nicotinamide] returned an IC50 of 549 nM. This IC50 is about 11-fold higher than that of the compound before.

For `CN1C(=O)C[C@@](C)(c2cccc(NC(=O)c3ncc(Cl)cn3)c2)N=C1N` [Example 20, 5-Chloro-pyrimidine-2-carboxylic acid [3-((S)-2-amino-1,4-dimethyl-6-oxo-1,4,5,6-tetrahydro-pyrimidin-4-yl)-phenyl]amide], the IC50 was 6 nM.

`CN1C(=O)C[C@@](C)(c2cccc(NC(=O)c3ccc(=O)n(C)n3)c2)N=C1N` [Example 21, 1-Methyl-6-oxo-1,6-dihydro-pyridazine-3-carboxylic acid [3-((S)-2-amino-1,4-dimethyl-6-oxo-1,4,5,6-tetrahydro-pyrimidin-4-yl)-phenyl]amide] came in with an IC50 of 4200 nM.

For the compound `Cc1cnc(C(=O)Nc2cccc([C@]3(C)CC(=O)N(C)C(N)=N3)c2)cn1` [Example 22, 5-Methyl-pyrazine-2-carboxylic acid [3-((S)-2-amino-1,4-dimethyl-6-oxo-1,4,5,6-tetrahydro-pyrimidin-4-yl)-phenyl]amide], half-maximal inhibition (IC50) required 123 nM.

`CN1C(=O)C[C@@](C)(c2cccc(NC(=O)c3ccc(=O)[nH]n3)c2)N=C1N` [Example 23, 6-Oxo-1,6-dihydro-pyridazine-3-carboxylic acid [3-((S)-2-amino-1,4-dimethyl-6-oxo-1,4,5,6-tetrahydro-pyrimidin-4-yl)-phenyl]amide] came in with an IC50 of 58 nM.

Take `Cc1cncc(C(=O)Nc2cccc([C@]3(C)CC(=O)N(C)C(N)=N3)c2)n1` [Example 24, 6-Methyl-pyrazine-2-carboxylic acid [3-((S)-2-amino-1,4-dimethyl-6-oxo-1,4,5,6-tetrahydro-pyrimidin-4-yl)-phenyl]amide]: the IC50 turned out to be 217 nM.

In turn, `CN1C(=O)C[C@@](C)(c2cccc(NC(=O)c3cnc(Cl)cn3)c2)N=C1N` [Example 25, 5-Chloro-pyrazine-2-carboxylic acid [3-((S)-2-amino-1,4-dimethyl-6-oxo-1,4,5,6-tetrahydro-pyrimidin-4-yl)-phenyl]-amide] yielded an IC50 of 10 nM.

`CN1C(=O)C[C@@](C)(c2cccc(NC(=O)c3ccncc3)c2)N=C1N` [Example 26, N-[3-((S)-2-Amino-1,4-dimethyl-6-oxo-1,4,5,6-tetrahydro-pyrimidin-4-yl)-phenyl]-isonicotinamide] displayed an IC50 of 960 nM.

With `CN1C(=O)C[C@@](C)(c2cccc(NC(=O)c3ccc(F)cn3)c2)N=C1N` [Example 27, 5-Fluoro-pyridine-2-carboxylic acid [3-((S)-2-amino-1,4-dimethyl-6-oxo-1,4,5,6-tetrahydro-pyrimidin-4-yl)-phenyl]amide], inhibition was half-maximal at 18 nM (IC50). This IC50 is about 53-fold lower than that of the compound before.

`CN1C(=O)C[C@@](C)(c2cccc(NC(=O)c3ncccc3Cl)c2)N=C1N` [Example 28, 3-Chloro-pyridine-2-carboxylic acid [3-((S)-2-amino-1,4-dimethyl-6-oxo-1,4,5,6-tetrahydro-pyrimidin-4-yl)-phenyl]amide] registered an IC50 of 18 nM. This counts as double-digit nanomolar.

In turn, `CN1C(=O)C[C@@](C)(c2cccc(NC(=O)c3cc(Cl)ccn3)c2)N=C1N` [Example 29, 4-Chloro-pyridine-2-carboxylic acid [3-((S)-2-amino-1,4-dimethyl-6-oxo-1,4,5,6-tetrahydro-pyrimidin-4-yl)-phenyl]-amide] came in with an IC50 of 48 nM.

For the compound `Cc1ccnc(C(=O)Nc2cccc([C@]3(C)CC(=O)N(C)C(N)=N3)c2)c1` [Example 30, 4-Methyl-pyridine-2-carboxylic acid [3-((S)-2-amino-1,4-dimethyl-6-oxo-1,4,5,6-tetrahydro-pyrimidin-4-yl)-phenyl]-amide], the IC50 was determined as 150 nM.

`CN1C(=O)C[C@@](C)(c2cccc(NC(=O)c3cccc(Cl)n3)c2)N=C1N` [Example 31, 6-Chloro-pyridine-2-carboxylic acid [3-((S)-2-amino-1,4-dimethyl-6-oxo-1,4,5,6-tetrahydro-pyrimidin-4-yl)-phenyl]-amide] came in with an IC50 of 30 nM.

In turn, `Cc1cccc(C(=O)Nc2cccc([C@]3(C)CC(=O)N(C)C(N)=N3)c2)n1` [Example 32, 6-Methyl-pyridine-2-carboxylic acid [3-((S)-2-amino-1,4-dimethyl-6-oxo-1,4,5,6-tetrahydro-pyrimidin-4-yl)-phenyl]-amide] yielded an IC50 of 220 nM. Against the preceding compound, the IC50 is about 7.3-fold higher.

`CN1C(=O)C[C@@](C)(c2cccc(NC(=O)c3cccnc3)c2)N=C1N` [Example 33, N-[3-((S)-2-Amino-1,4-dimethyl-6-oxo-1,4,5,6-tetrahydro-pyrimidin-4-yl)-phenyl]-nicotinamide] registered an IC50 of 1100 nM. This IC50 is about 5-fold higher than that of the compound before.

`CN1C(=O)C[C@@](C)(c2cccc(NC(=O)c3ccccc3)c2)N=C1N` [Example 34, N-[3-((S)-2-Amino-1,4-dimethyl-6-oxo-1,4,5,6-tetrahydro-pyrimidin-4-yl)-phenyl]-benzamide] had an IC50 of 200 nM. This IC50 is about 5.5-fold lower than that of the compound before.

As to `Cc1ncc(C(=O)Nc2cccc([C@]3(C)CC(=O)N(C)C(N)=N3)c2)cn1` [Example 35, 2-Methyl-pyrimidine-5-carboxylic acid [3-((S)-2-amino-1,4-dimethyl-6-oxo-1,4,5,6-tetrahydro-pyrimidin-4-yl)-phenyl]-amide], the IC50 worked out at 6420 nM.

As to `CN1C(=O)C[C@@](C)(c2cccc(NC(=O)c3c[nH]c(=O)cn3)c2)N=C1N` [Example 36, 5-Oxo-4,5-dihydro-pyrazine-2-carboxylic acid [3-((S)-2-amino-1,4-dimethyl-6-oxo-1,4,5,6-tetrahydro-pyrimidin-4-yl)-phenyl]-amide], the midpoint of inhibition, the IC50, lay at 42 nM.

Regarding `CN1C(=O)C[C@@](C)(c2cccc(NC(=O)c3ncccc3-c3ccccc3)c2)N=C1N` [Example 37, 3-Phenyl-pyridine-2-carboxylic acid [3-((S)-2-amino-1,4-dimethyl-6-oxo-1,4,5,6-tetrahydro-pyrimidin-4-yl)-phenyl]-amide], the IC50 turned out to be 21 nM.

For the compound `Cc1nc(C(=O)Nc2cccc([C@]3(C)CC(=O)N(C)C(N)=N3)c2)co1` [Example 38, 2-Methyl-oxazole-4-carboxylic acid [3-((S)-2-amino-1,4-dimethyl-6-oxo-1,4,5,6-tetrahydro-pyrimidin-4-yl)-phenyl]-amide], 9 nM corresponded to half-maximal inhibition (IC50).

As for `CC[C@@]1(c2cccc(NC(=O)c3ccc(Cl)cn3)c2)CC(=O)N(C)C(N)=N1` [Example 39, 5-Chloro-pyridine-2-carboxylic acid [3-((S)-2-amino-4-ethyl-1-methyl-6-oxo-1,4,5,6-tetrahydro-pyrimidin-4-yl)-phenyl]-amide], the IC50 turned out to be 11 nM.
